Results published in ChEMBL document CHEMBL4393659, “Insights into the chemistry and therapeutic potential of furanones: A versatile pharmacophore” (Eur J Med Chem, 2019).
≈ marks a conversion by molar mass, not a printed value.

How the values were obtained:
[1] = tested on: Candida albicans; assay: Antifungal activity against Candida albicans ATCC 90028 assessed as reduction in fungal cell viability measured after 24 and 48 hrs by spectrophotometry; assay type: functional
[2] = tested on: Rattus norvegicus; assay: Antiinflammatory activity in po dosed Sprague-Dawley rat assessed as inhibition of carrageenan-induced paw edema incubated for one hour followed by carrageenan addition and measured after 3 hrs; assay type: functional
[3] = organism: Rattus norvegicus; assay: Antiarthritic activity in adjuvant-induced Sprague-Dawley rat; assay type: functional
[4] = target: Phospholipase A2 (Apis mellifera, UniProt P00630); assay: Inhibition of bee venom phospholipase A2 preincubated for 1 hr followed by addition of phosphotidylcholine and 1-palmitoyl-2-(1-14C) palmitoyl further incubated for 10 mins and measured after 15 secs by scintillation counting method
[5] = target: GABA-A receptor; anion channel; assay: Displacement of [35S]TBPS from GABAA (unknown origin) incubated for 90 mins by scintillation counting method; assay type: protein-complex assay, Homo sapiens
[6] = tested on: Mus musculus; assay: Anticonvulsant activity in ip dosed CF-1 mouse assessed as protection against PTZ-induced seizures measured after 30 mins […]; assay type: functional
[7] = Acute toxicity in Swiss albino mouse assessed as reduction in mortality of animal at 200 to 800 mg/kg , ip observed for 8 days; assay type: organism-based; details: in vivo
[8] = tested on: Mycobacterium tuberculosis; assay: Antimycobacterial activity against Mycobacterium tuberculosis H37Rv; assay type: functional, organism-based
[9] = tested on: Plasmodium falciparum; assay: Antimalarial activity against Plasmodium falciparum infected in human blood assessed as reduction in cell viability incubated for 72 hrs by Giemsa stain based assay; assay type: functional
[10] = tested on: Escherichia coli; assay: Antibacterial activity against Escherichia coli; assay type: functional
[11] = tested on: Salmonella typhimurium; assay: Inhibition of biofilm formation in Salmonella enterica subsp. enterica serovar Typhimurium 14028S incubated for 48 hrs by crystal violet staining based assay; assay type: functional, organism-based
[12] = target: Prostaglandin G/H synthase 2 (Homo sapiens, UniProt P35354); assay: Inhibition of recombinant human COX2 expressed in baculovirus infected Sf9 cells
[13] = target: GABA-A receptor; alpha-1/beta-2/gamma-2 (Homo sapiens) (UniProt P14867+P47870+P18507); assay: Positive allosteric modulation of recombinant GABAA alpha1beta2gamma2 (unknown origin) expressed in Xenopus laevis oocytes assessed as increase GABA-stimulated current amplitude at 200 uM by electrophysiological two-electrode voltage clamp method; assay type: cell-based
[14] = tested on: Rattus norvegicus; assay: Antiinflammatory activity in Sprague-Dawley rat assessed as inhibition of carrageenan-induced paw edema at 3 mg/kg , po relative to control; assay type: functional
[15] = tested on: Aspergillus fumigatus; assay: Antifungal activity against Aspergillus fumigatus assessed as reduction in fungal cell viability by broth dilution method; assay type: functional
[16] = tested on: Lichtheimia corymbifera; assay: Antifungal activity against Absidia corymbifera assessed as reduction in fungal cell viability by broth dilution method; assay type: functional
[17] = tested on: Mus musculus; assay: Anticonvulsant activity in ip dosed mouse assessed as reduction in PTZ-induced seizures pretreated for 30 mins followed by PTZ addition; assay type: functional
[18] = tested on: Rattus norvegicus; assay: Antiinflammatory activity in Wistar rat assessed as inhibition of carrageenan-induced edema measured upto 4 hrs; assay type: functional
[19] = tested on: Pseudomonas aeruginosa; assay: Antibacterial activity against Pseudomonas aeruginosa NCLM-2035 assessed as reduction in bacterial cell viability incubated for 24 hrs by broth microdilution method; assay type: functional; details: NCLM-2035, 24 h
[20] = tested on: Candida albicans; assay: Antifungal activity against Candida albicans assessed as reduction in fungal cell viability incubated for 48 hrs by broth microdilution method; assay type: functional
[21] = tested on: Staphylococcus aureus; assay: Antibacterial activity against Staphylococcus aureus ATCC 29737 assessed as reduction in bacterial cell viability incubated for 24 hrs by broth microdilution method; assay type: functional; details: ATCC 29737, 24 h
[22] = tested on: Rhizopus arrhizus; assay: Antifungal activity against Rhizopus oryzae assessed as reduction in fungal cell viability incubated for 48 hrs by broth microdilution method; assay type: functional
[23] = tested on: Escherichia coli; assay: Antibacterial activity against Escherichia coli ATCC 8739 assessed as reduction in bacterial cell viability incubated for 24 hrs by broth microdilution method; assay type: functional; details: ATCC 8739, 24 h
[24] = tested on: Aspergillus niger; assay: Antifungal activity against Aspergillus niger assessed as reduction in fungal cell viability incubated for 48 hrs by broth microdilution method; assay type: functional
[25] = Ulcerogenicity in Wistar rat assessed as gastric lesions by measuring ulcer severity index at 60 mg/kg , po measured after 17 hrs relative to ibuprofen; assay type: toxicity, organism-based; details: in vivo
[26] = tested on: A549; assay: Cytotoxicity against human A549 cells assessed as reduction in cell viability incubated for 48 hrs by SRB method; assay type: functional; details: A549, 48 h, read-out: ED50 (the source's name)
[27] = tested on: NIH3T3; assay: Cytotoxicity against mouse NIH/3T3 cells assessed as reduction in cell viability incubated for 48 hrs by SRB method; assay type: functional; details: NIH3T3, 48 h, read-out: ED50 (the source's name)
[28] = tested on: SK-OV-3; assay: Cytotoxicity against human SKOV3 cells assessed as reduction in cell viability incubated for 48 hrs by SRB method; assay type: functional; details: SK-OV-3, 48 h, read-out: ED50 (the source's name)
[29] = tested on: Rattus norvegicus; assay: Antiinflammatory activity in albino rat assessed as inhibition of carrageenan-induced paw edema by measuring mercury displacement at 20 mg/kg , po relative to control; assay type: functional
[30] = tested on: Aspergillus fumigatus; assay: Antifungal activity against Aspergillus fumigatus assessed as reduction in fungal cell viability measured after 24 and 48 hrs by broth microdilution method; assay type: functional

Sequence of Phospholipase A2 (P00630 whole entry): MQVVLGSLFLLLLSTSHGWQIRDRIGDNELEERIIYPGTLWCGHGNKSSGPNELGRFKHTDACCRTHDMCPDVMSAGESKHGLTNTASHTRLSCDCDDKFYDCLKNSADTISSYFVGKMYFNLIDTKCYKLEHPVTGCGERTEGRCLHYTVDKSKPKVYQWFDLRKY
Sequence of Prostaglandin G/H synthase 2 (P35354 whole entry): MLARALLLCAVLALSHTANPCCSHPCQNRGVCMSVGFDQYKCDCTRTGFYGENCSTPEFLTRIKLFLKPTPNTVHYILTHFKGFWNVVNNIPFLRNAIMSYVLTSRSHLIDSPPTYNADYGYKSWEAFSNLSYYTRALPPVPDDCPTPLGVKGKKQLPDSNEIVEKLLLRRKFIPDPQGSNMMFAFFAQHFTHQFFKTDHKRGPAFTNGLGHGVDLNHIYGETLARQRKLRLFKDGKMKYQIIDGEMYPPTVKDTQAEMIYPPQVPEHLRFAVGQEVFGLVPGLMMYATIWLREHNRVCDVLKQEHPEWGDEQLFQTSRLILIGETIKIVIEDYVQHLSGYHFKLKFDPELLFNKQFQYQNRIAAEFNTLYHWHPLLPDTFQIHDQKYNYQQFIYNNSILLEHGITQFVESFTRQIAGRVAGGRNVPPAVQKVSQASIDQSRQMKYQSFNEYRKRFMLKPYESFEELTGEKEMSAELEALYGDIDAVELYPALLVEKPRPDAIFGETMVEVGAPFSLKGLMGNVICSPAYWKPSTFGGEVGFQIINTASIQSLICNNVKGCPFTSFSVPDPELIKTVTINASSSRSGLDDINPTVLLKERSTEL

CC(=O)OCC1C=C(c2ccc(Br)cc2)C(=O)O1 (stereo unspecified)
MIC [1]: 0.5 µg/mL (≈ 1.61 µM)

CC1(C)OC(=O)C(Oc2ccc(Br)cn2)=C1c1ccc(S(C)(=O)=O)cc1
ED50 [2]: 0.86 mg/kg | ED50 [3]: 0.2 mg/kg

CC(C)(C)C(=O)OC(CCCCCCCCCCCCC(OC(=O)C(C)(C)C)C1=CC(=O)OC1OC(=O)Nc1ccccc1)C1=CC(=O)OC1OC(=O)Nc1ccccc1 (stereo unspecified)
IC50 [4]: > 1 µM

CC1(CC(F)(F)F)COC(=O)C1 (stereo unspecified)
IC50 [5]: 8 µM | CD50 [6]: 3 mg/kg

O=C1O[C@H]([C@@H](O)CO)C(O)=C1O [ASCORBIC ACID]
LD50 at 192 h [7]: > 800 mg/kg

COc1cc(/C=C2\C=C(c3cccc(Br)c3)OC2=O)ccc1OC(C)=O
IC50 [8]: 5.05 µg/mL (≈ 12.2 µM) | IC90 [8]: 7.85 µg/mL (≈ 18.9 µM)

COc1cccc2cc(/C=C3/CC(c4ccc(C)cc4C)OC3=O)c(Cl)nc12 (stereo unspecified)
MIC [9]: 0.5 to 0.72 µg/mL (≈ 1.27 to 1.83 µM)

O=C1OCCC1CC(F)(F)F (stereo unspecified)
IC50 [5]: 105 µM | CD50 [6]: 30 mg/kg

O=C1C=C(c2ccc(Cl)cc2)O/C1=N\C12CC3CC(CC(C3)C1)C2
MIC [10]: 7.8 µg/mL (≈ 22.8 µM)

O=C1C=CC(=C(Br)Br)O1
IC50 [11]: 15 µM

CC(C1CCOC1=O)C(F)(F)F (stereo unspecified)
IC50 [5]: 142 µM | CD50 [6]: 30 mg/kg

Cc1ccc2c(c1)C1=C(c3ccc(S(C)(=O)=O)cc3)C(=O)OC1CC2 (stereo unspecified)
IC50 [12]: 0.5 to 0.6 µM

CCCC1(CCC)C(=O)OCC1NC(=O)OCC (stereo unspecified)
Activity [13]: 426%

CC1(C)OC(c2ccc(S(C)(=O)=O)cc2)=C(c2cccc(C(F)(F)F)c2)C1=O
inhibition in vivo at 3 mg/kg [14]: 32% | ED50 [3]: 0.06 mg/kg/day

CC(=O)N1CCN(c2ccc(OCC3COC(Cn4ccnc4)(c4ccc(Cl)cc4Cl)O3)cc2)CC1 (stereo unspecified) [KETOCONAZOLE]
MIC [15]: 16.6 µg/mL (≈ 31.2 µM) | MIC [16]: 16.6 µg/mL (≈ 31.2 µM)

CCC1(CC)CC(CCOC(=O)c2ccc(C)cc2)OC1=O (stereo unspecified)
ED50 [17]: 89.9 to 285 mg/kg

O=C1OC(c2ccc(-c3ccccc3)cc2)=C/C1=C\c1cc2ccc([N+](=O)[O-])cc2nc1Cl
inhibition (INH) [18]: 56 - 63%

O=C1OC(c2ccc(Cl)cc2)=C/C1=C\c1ccc(F)cc1
MIC [19]: 12.5 to 50 µg/mL (≈ 41.6 to 166 µM) | MIC [20]: 12.5 to 50 µg/mL (≈ 41.6 to 166 µM) | MIC [21]: 12.5 to 50 µg/mL (≈ 41.6 to 166 µM) | MIC [22]: 12.5 to 50 µg/mL (≈ 41.6 to 166 µM) | MIC [23]: 12.5 to 50 µg/mL (≈ 41.6 to 166 µM) | MIC [24]: 12.5 to 50 µg/mL (≈ 41.6 to 166 µM)

CC(C)Cc1ccc(C2=C/C(=C\c3ccc(F)cc3)C(=O)O2)cc1
UI [25]: 0.1

O=C1OC(c2ccc(Cl)cc2)=C/C1=C\c1ccc(Br)cc1
MIC [19]: 12.5 to 50 µg/mL (≈ 34.6 to 138 µM) | MIC [20]: 12.5 to 50 µg/mL (≈ 34.6 to 138 µM) | MIC [21]: 12.5 to 50 µg/mL (≈ 34.6 to 138 µM) | MIC [22]: 12.5 to 50 µg/mL (≈ 34.6 to 138 µM) | MIC [23]: 12.5 to 50 µg/mL (≈ 34.6 to 138 µM) | MIC [24]: 12.5 to 50 µg/mL (≈ 34.6 to 138 µM)

CC(C)Cc1ccc(C2=C/C(=C\c3ccccc3Cl)C(=O)O2)cc1
UI [25]: 0.2

COc1cc(/C=C2\C=CC(=O)O2)c(OC)c2c1C(=O)c1ccccc1C2=O
EC50 [26]: 9.2 to 16.5 µg/mL (≈ 25.4 to 45.5 µM) | EC50 [27]: 9.2 to 16.5 µg/mL (≈ 25.4 to 45.5 µM) | EC50 [28]: 9.2 to 16.5 µg/mL (≈ 25.4 to 45.5 µM)

O=C1C=C/C(=C\c2cccc([N+](=O)[O-])c2)O1
EC50 [26]: 5.9 to 21 µg/mL (≈ 27.2 to 96.7 µM) | EC50 [27]: 5.9 to 21 µg/mL (≈ 27.2 to 96.7 µM) | EC50 [28]: 5.9 to 21 µg/mL (≈ 27.2 to 96.7 µM)

COc1cc(/C=C2/C=C(c3ccc(C)cc3)OC2=O)cc(OC)c1OC
inhibition in vivo at 20 mg/kg [29]: 45.2%

CCC1=C(Br)/C(=C/Br)OC1=O
IC50 [11]: 50 µM

CCC1(CC)CC(CCNC(=O)c2ccccc2)OC1=O (stereo unspecified)
ED50 [17]: 89.9 to 285 mg/kg

C[C@@H]1[C@H](O)[C@@H](C)/C=C/C=C/C=C/C=C/C=C/C=C/C=C/[C@H](O[C@@H]2O[C@H](C)[C@@H](O)[C@H](N)[C@@H]2O)C[C@@H]2O[C@](O)(C[C@@H](O)C[C@@H](O)[C@H](O)CC[C@@H](O)C[C@@H](O)CC(=O)O[C@H]1C)C[C@H](O)[C@H]2C(=O)O [AMPHOTERICIN B]
MIC [30]: 0.5 µg/mL (≈ 0.541 µM)

COc1cc(C2OC(=O)CC2C(C)=O)cc(OC)c1O (stereo unspecified)
LD50 at 192 h [7]: 200 mg/kg

C=CCOC(=O)NC1COC(=O)C1(CCC)CCC (stereo unspecified)
Activity [13]: 420%

COc1cccc2cc(/C=C3/CC(c4ccc(Cl)c(Cl)c4)OC3=O)c(Cl)nc12 (stereo unspecified)
MIC [9]: 0.5 to 0.72 µg/mL (≈ 1.15 to 1.66 µM)
